Here are results for 13 molecules from US6211182A, “Imidazole compounds substituted with a six or seven membered heterocyclic ring containing two nitrogen atoms” (Schering Corporation, priority 1999, dated 2001).

The subject of the first test is mice.
Experiment: not given
As to conditions: Yokoyama et al. 1993; cited from earlier work.
Take `S=C(NC1CCCCC1)N1CCC(c2cnc[nH]2)CC1` [thioperamide]: the “duration of each phase of convulsion” value is recorded as “decreased the duration of each phase of convulsion” and the electroconvulsive threshold result was “raised the electroconvulsive threshold”.

The target in a further test is T1, H3 receptor (Cavia porcellus, UniProt Q9JI35).
T1 construct: The source of the H3 receptors in this experiment was guinea pig brain; from tissue; host or cells: guinea pig brain membranes
T1 sequence (Q9JI35 whole entry): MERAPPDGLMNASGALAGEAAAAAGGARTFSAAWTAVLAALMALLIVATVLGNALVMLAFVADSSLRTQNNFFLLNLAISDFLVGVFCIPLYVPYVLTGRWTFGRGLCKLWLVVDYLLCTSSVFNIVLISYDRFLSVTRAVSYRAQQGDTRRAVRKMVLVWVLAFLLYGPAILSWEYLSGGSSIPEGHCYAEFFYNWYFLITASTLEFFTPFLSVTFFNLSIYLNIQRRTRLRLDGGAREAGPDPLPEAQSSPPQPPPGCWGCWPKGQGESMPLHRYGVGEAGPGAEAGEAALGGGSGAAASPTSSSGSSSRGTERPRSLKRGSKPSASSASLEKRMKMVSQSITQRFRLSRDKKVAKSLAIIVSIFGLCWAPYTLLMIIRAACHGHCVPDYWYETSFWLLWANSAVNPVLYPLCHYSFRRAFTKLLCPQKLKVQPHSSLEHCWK
In words: H3 Receptor Binding Assay (guinea pig brain membranes, [3H]R-α-methylhistamine or [3H]-N-methylhistamine). As to conditions: 3 nM radioligand, 30° C., 30 min. Here is the method: Procedure for H3 Receptor Binding Assay
The source of the H3 receptors in this experiment was guinea pig brain. The animals used weighed 400-600 g. The tissue was homogenized using a Polytron in a solution of 50 mM Tris, pH 7.5. The final concentration of tissue in the homogenization buffer was 10% w/v. The homogenates were centrifuged at 1000×g for 10 min. in order to remove clumps of tissue and debris. The resulting supernatants were then centrifuged at 50,000×g for 20 min. in order to sediment the membranes, which were next washed 3 times in homogenization buffer (50,000×g for 20 min. each). The membranes were frozen and stored at -70° C. until needed.
All compounds to be tested were dissolved in DMSO and then diluted into the binding buffer (50 mM Tris, pH 7.5) such that the final concentration was 2 μg/mL with 0.1% DMSO. Membranes were then added (400 μg of protein) to the reaction tubes. The reaction was started by the addition of 3 nM [^3 H]R-α-methylhistamine (8.8 Ci/mmol) or [^3 H]-N-methylhistamine (80 Ci/mmol) and incubated at 30° C. for 30 min. Bound ligand was separated from unbound ligand by filtration, and the amount of radioactive ligand bound to the membranes was quantitated by liquid scintillation spectrometry. All incubations were performed in duplicate and the standard error was less than 10% in all instances.
Take `O=C(NCCCCc1c[nH]cn1)C1CN(Cc2ccc(Cl)cc2)CCN1Cc1ccc(Cl)cc1` (stereo not drawn): the inhibition constant Ki (as a rule, the equilibrium dissociation constant of an inhibitor or competing ligand from its target) came to 20 nM. `CCOC(=O)C1CNCCN1CCCCc1c[nH]cn1` (stereo not drawn) displayed a Ki of 32 nM. On the same count and under the same terms, with `CCOC(=O)C1CN(CCCCc2c[nH]cn2)CCN1Cc1ccc(Cl)cc1` (stereo not drawn) the figure was 46 nM. Still for that read-out and setting: with `O=C(NCCCCc1c[nH]cn1)C1CN(Cc2ccc(Cl)cc2)CCN1` (stereo not drawn) the figure was 46 nM; with `O=C(NCCCCc1c[nH]cn1)C1CNCCN1Cc1ccc(Cl)cc1` (stereo not drawn), 38 nM; with `O=C(Nc1cccc(Cl)c1)N1CCN(CCCCc2c[nH]cn2)CC1`, 6 nM. On the same count and under the same terms, then `O=C(/C=C/c1cccnc1)N1CCN(CCCCc2c[nH]cn2)CC1`, with 25 nM; and `O=C(NCCCCCc1c[nH]cn1)C1CNCCN1` (stereo not drawn), with 39 nM; and `Clc1ccc(CN2CCN(Cc3ccc(Cl)cc3)C(CCc3c[nH]cn3)C2)cc1` (stereo not drawn), with 45 nM. `O=C(/C=C/c1ccccc1)N1CCN(CCCCc2c[nH]cn2)CC1` yielded a Ki of 6 nM. Against the preceding molecule, the Ki is about 7.5-fold lower. Regarding `O=C(Nc1ccc(C(F)(F)F)cc1)N1CCN(CCCCc2c[nH]cn2)CC1`, the Ki came out at 14 nM.

Still in this test, the particulars now being: unit given as mM.
For the molecule `CCOC(=O)C1CN(Cc2ccc(Cl)cc2)CCN1CCCCc1c[nH]cn1` (stereo not drawn), the Ki is 26 nM. This lies in the double-digit nanomolar range.

The next test relates to rat.
Experiment: not given
To be noted: Clapham et al. 1993; cited from earlier work.
As to `S=C(NC1CCCCC1)N1CCC(c2cnc[nH]2)CC1` [thioperamide], the “short-term memory and reversal learning” value is “can improve short-term memory and reversal learning in the rat”.
